Target: T1, α-synuclein (α-syn) aggregates in PD brain homogenates (Homo sapiens, UniProt P37840)
T1 construct: Anterior cingulate cortex tissue from a Parkinson’s disease (PD) case; tissue Banner Sun Health Research Institute (Dr. Thomas Beach); host or cells: post-mortem human PD anterior cingulate cortex homogenate
Experiment: Two point screening assay (30 nM and 300 nM) vs [3H]asyn-44 in human PD brain homogenates
Format: binding
Settings: for % [3H]asyn-44 remaining at 30 nM: 30 nM competitor; for % [3H]asyn-44 remaining at 300 nM: 300 nM competitor
Description: Screening assays for the test compounds were performed at two concentrations—30 nM and 300 nM—using unlabelled competitors in human PD brain homogenates against [^3H]asyn-44 as previously described. […] Each assay was conducted in triplicate for both concentrations to ensure reproducibility and statistical reliability.

SMILES	% [3H]asyn-44 remaining at 30 nM	% [3H]asyn-44 remaining at 300 nM
CC1CCN(c2ncc(-c3ccc4sc(-c5cccnc5)cc4n3)cc2F)C1 (centres unmarked) [LMD-001]	72%	39%
Fc1cc(-c2ccc3sc(-c4cccnc4)cc3n2)cnc1N1CCCC1 [LMD-002]	57%	21%
Cn1ccc(-c2cc3nc(-c4ccc(N5CCC(F)C5)nc4)ccc3s2)n1 (centres unmarked) [LMD-005]	112%	64%
FC1CCN(c2cnc(-c3ccc4sc(-c5cccnc5)cc4n3)cn2)C1 (centres unmarked) [LMD-009]	45%	17%
Cn1ccc(-c2cc3nc(-c4cnc(N5CCC(F)C5)cn4)ccc3s2)n1 (centres unmarked) [LMD-013]	87%	58%
F[C@@H]1CCN(c2cnc(-c3ccc4sc(-c5cncs5)cc4n3)cn2)C1 [LMD-014]	45%	20%
COc1cncc(-c2cc3nc(-c4cnc(N5CCC(F)C5)cn4)ccc3s2)c1 (centres unmarked) [LMD-015]	46%	21%
Cn1ccc(N2Cc3nc(-c4ccc(N5CCC(F)C5)nc4)ccc3C2=O)n1 (centres unmarked) [LMD-016]	91%	48%
Cn1ccc(N2Cc3nc(-c4cnc(N5CCC(F)C5)cn4)ccc3C2=O)n1 (centres unmarked) [LMD-017]	43%	25%
O=C1c2ccc(-c3ccc(N4CCC(F)C4)nc3)nc2CN1c1cccnc1 (centres unmarked) [LMD-019]	66%	27%
Cn1cnc(N2Cc3nc(-c4ccc(N5CCC(F)C5)nc4)ccc3C2=O)c1 (centres unmarked) [LMD-023]	99%	50%
FC1CCN(c2ccc(-c3csc4ccc(-c5cccnc5)nc34)cn2)C1 (centres unmarked) [LMD-026]	56%	25%
FC1CCN(c2ccc(-n3cc4sc(-c5cncs5)cc4n3)cn2)C1 (centres unmarked) [LMD-028]	81%	38%
FC1CCC(c2cnc(-n3cc4sccc4n3)cn2)C1 (centres unmarked) [LMD-031]	66%	24%
F[C@@H]1CCN(c2cnc(-n3cc4sc(-c5cccnc5)cc4n3)cn2)C1 [LMD-033]	51%	33%
FC1CCN(c2cnc(-c3ccc4sccc4n3)cn2)CC1 [LMD-036]	65%	23%
FC1CCN(c2cnc(-c3ccc4sccc4n3)cn2)C1 (centres unmarked) [LMD-039]	57%	27%
FC1CCN(c2ccc(-c3ccc4scc(Br)c4n3)cn2)C1 (centres unmarked) [LMD-040]	54%	28%
FC1CCN(c2cc(Cl)ncc2-c2ccc3sc(-c4cccnc4)cc3n2)C1 (centres unmarked) [LMD-049]	89%	35%
Cn1ccc(-c2cc3nc(-c4cnc(N5CCC(F)CC5)cn4)ccc3s2)n1 [LMD-060]	48%	29%
FC1CCN(c2ccnc(-n3cc4sc(-c5cccnc5)cc4n3)n2)C1 (centres unmarked) [LMD-061]	56%	29%
FC1CCN(c2cnc(-c3ccc4sc(-c5cncs5)cc4n3)cn2)CC1 [LMD-062]	43%	32%
Cn1ccc(-c2csc3ccc(-c4ccc(N5CCC(F)C5)nc4)nc23)n1 (centres unmarked) [LMD-063]	64%	33%
O=C1NCc2nc(-c3ccc(N4CCC(F)C4)nc3)ccc21 (centres unmarked) [LMD-064]	46%	26%
Cn1ccc(-c2cc3nn(-c4cnc(N5CCC(F)CC5)cn4)cc3s2)n1 [LMD-066]	76%	51%

Source: article PMC12523303, “Multi-Fused S,N-Heterocyclic Compounds for Targeting α-Synuclein Aggregates” (Cells, 2025)
